Data: patent US20210346476A1, “Modified FVIII Apitope Peptides” (APITOPE INTERNATIONAL NV, priority 2012, published 2021)
No end group written: not given here.

Test: Direct dissolution of tagged peptides in aqueous solvent (PBS) at 4 mg/mL, NanoDrop
Format: physicochemical
Conditions: 4 mg/mL in PBS vs DMSO control; FIG. 2
Procedure: For each test peptide and the parent peptides (PRCLT and DNIMV) two tubes were prepared at 4 mg/mL in either DMSO (control) or PBS.
Each tube was spun at full speed in a mini-centrifuge for 5 minutes. A 10 μL sample was removed from the top of each solution and the molecular weight and coefficient of absorption was recorded for each peptide.
The absorbance of the supernatant was measured using NanoDrop and the concentration calculated. In this Figure, greater disparity between the actual and expected concentration corresponds to lower relative solubility.

| Sequence | solubility in PBS compared to the parent peptides |
| --- | --- |
| KEGPRCLTRYYSSFVNMEGKE [SEQ ID No. 10] | improved solubility in PBS |
| KKGPRCLTRYYSSFVNMEGKE [SEQ ID No. 2] | improved solubility in PBS |
| KKGPRCLTRYYSSFVNMEGKK [SEQ ID No. 1] | improved solubility in PBS |
| KEGPRCLTRYYSSFVNMEGKK [SEQ ID No. 9] | improved solubility in PBS |

The next lines start with the values.

| solubility in PBS compared to the parent peptides | Sequence |
| --- | --- |
| improved solubility in PBS | KEGDNIMVTFRNQASRPYGKK [SEQ ID No. 25] |
| improved solubility in PBS | KKGDNIMVTFRNQASRPYGKK [SEQ ID No. 17] |
| improved solubility in PBS | KEGDNIMVTFRNQASRPYGKE [SEQ ID No. 26] |
| improved solubility in PBS | KKGDNIMVTFRNQASRPYGKE [SEQ ID No. 18] |
